Where “and” joins values, the source holds several entries; their conditions need not be identical. Equal values may be shown once. Inconclusive results and toxic doses are left out.

These results are taken from PubChem BioAssay AID340 (DTP/NCI, 2004).

The subject of this assay is CD2F1 mice, ip reticulum cell sarcoma, survival T/C. The assay can be described thus: NCI In Vivo Anticancer Drug Screen. Data for tumor model Reticulum Cell Sarcoma (Kelley Mouse) (intraperitoneal) in CD2F1 (CDF1) mice. The settings on record: endpoint: median survival time, schedule: Q01DX010 (ip), higher = longer survival. Here is the method: The antitumor activity of compounds was measured in mice bearing transplantable tumors. Survival or tumor size were measured and the results are expressed as the measurement made in the treated group (T) divided by the measurement made in the vehicle treated control group (C). The tumor model used in this assay is Reticulum Cell Sarcoma (Kelley Mouse) (intraperitoneal) in CD2F1 (CDF1) mice

The mark [1] stands for this setting: dose: 80.0 mg/kg/injection, vehicle: saline.
The mark [2] stands for this setting: dose: 7.5 mg/kg/injection, vehicle: saline.
[3] abbreviates: dose: 15.0 mg/kg/injection, vehicle: saline.
Where [4] appears, read: dose: 30.0 mg/kg/injection, vehicle: saline.
The mark [5] stands for this setting: dose: 62.5 mg/kg/injection, vehicle: saline.
Where [6] appears, read: dose: 125.0 mg/kg/injection, vehicle: saline.
The mark [7] stands for this setting: dose: 25.0 mg/kg/injection, vehicle: saline.
[8] abbreviates: dose: 50.0 mg/kg/injection, vehicle: saline.
Setting [9] is: dose: 100.0 mg/kg/injection, vehicle: saline.
Where [10] appears, read: dose: 200.0 mg/kg/injection, vehicle: saline.
Where [11] appears, read: dose: 400.0 mg/kg/injection, vehicle: saline.

Turning to `OCC1OC(n2cnc3c(=S)nc[nH]c32)C(O)C1O` (stereo not drawn), the T/C was 117 % of control (dose: 20.0 mg/kg/injection, vehicle: saline); 170 % of control and 177 % of control under setting [1]; 180 % of control (dose: 160.0 mg/kg/injection, vehicle: saline).
Regarding `Clc1ncnc2nc[nH]c12`, the T/C is, setting by setting: under setting [2], 94 % of control and 111 % of control; under setting [3], 94 % of control and 100 % of control; under setting [4], 97 % of control and 102 % of control; (dose: 60.0 mg/kg/injection, vehicle: saline) 100 % of control and 105 % of control.
For `CCCCNc1ncnc2c1cnn2C`, the T/C by setting is: (dose: 31.3 mg/kg/injection, vehicle: saline) 95 % of control and 100 % of control; under setting [5], 94 % of control and 102 % of control; under setting [6], 90 % of control and 100 % of control.
On to `CN(C)[C@@H]1C(=O)C(C(N)=O)=C(O)[C@@]2(O)C(=O)C3=C(O)c4c(O)cccc4C[C@H]3C[C@@H]12`, for which the T/C (dose: 3.75 mg/kg/injection, vehicle: saline) was 100 % of control; the T/C under setting [2] was 105 % of control and 107 % of control; the T/C under setting [3] was 100 % of control and 102 % of control; the T/C under setting [4] was 94 % of control and 100 % of control.
As to `Oc1cc(CN(CCCl)CCCl)c(O)cc1CN(CCCl)CCCl`, the T/C (dose: 0.63 mg/kg/injection, vehicle: saline) was 100 % of control; the T/C (dose: 1.25 mg/kg/injection, vehicle: saline) was 100 % of control; the T/C (dose: 2.5 mg/kg/injection, vehicle: saline) is 106 % of control; the T/C (dose: 5.0 mg/kg/injection, vehicle: saline) is 100 % of control.
For `CN(C)c1ccc(Nc2c3ccccc3nc3ccccc23)cc1`, the T/C was 159 % of control and 183 % of control (dose: 54.0 mg/kg/injection, vehicle: saline); 183 % of control and 187 % of control under setting [1]; 86 % of control (dose: 120.0 mg/kg/injection, vehicle: saline).
In the case of `CS(=O)(=O)OCCCl`, the T/C reads like this: (dose: 18.8 mg/kg/injection, vehicle: saline) 103 % of control; (dose: 37.5 mg/kg/injection, vehicle: saline) 106 % of control and 115 % of control; (dose: 75.0 mg/kg/injection, vehicle: saline) 100 % of control.
For the molecule `O=[n+]1c2c(n([O-])c3ccccc31)-c1cccc3cccc-2c13`, the T/C runs as follows: under setting [7], 92 % of control and 100 % of control; under setting [8], 92 % of control and 106 % of control; under setting [9], 100 % of control and 103 % of control; under setting [10], 92 % of control and 100 % of control.
In the case of `CN(C)/N=N/c1nc[nH]c1C(N)=O`, the T/C reads like this: under setting [8], 100 % of control; under setting [9], 107 % of control and 120 % of control; under setting [11], 100 % of control.
Turning to `O=C(Nc1ccc(C2=NCCCN2)cc1)c1ccc(C(=O)Nc2ccc(C3=NCCCN3)cc2)cc1`, the T/C was 117 % of control and 120 % of control (dose: 0.5 mg/kg/injection, vehicle: other); 186 % of control and 202 % of control (dose: 1.0 mg/kg/injection, vehicle: other); 248 % of control (dose: 2.0 mg/kg/injection, vehicle: other).
For `CS(=O)(=O)OCC(O)C(O)C(O)C(O)COS(C)(=O)=O` (stereo not drawn), the T/C by setting is: under setting [7], 102 % of control; under setting [8], 100 % of control and 111 % of control; under setting [9], 100 % of control and 102 % of control; under setting [10], 100 % of control and 111 % of control; under setting [11], 110 % of control.
For `OCC1OC(n2cnc3c(Cl)ncnc32)C(O)C1O` (stereo not drawn), the T/C under setting [5] is 97 % of control and 100 % of control; the T/C under setting [6] is 92 % of control and 100 % of control; the T/C (dose: 250.0 mg/kg/injection, vehicle: saline) is 95 % of control and 102 % of control; the T/C (dose: 500.0 mg/kg/injection, vehicle: saline) was 91 % of control and 92 % of control.
